Source: article PMC7211198, “Phase 1b study of a small molecule antagonist of human chemokine (C-C motif) receptor 2 (PF-04136309) in combination with nab-paclitaxel/gemcitabine in first-line treatment of metastatic pancreatic ductal adenocarcinoma” (Investigational New Drugs, 2019)

Test system: CD14 + CCR2+ inflammatory monocytes
Assay: CD14+CCR2+ inflammatory monocytes in peripheral blood and bone marrow by flow cytometry
Assay type: in vivo, human
Description: The levels of CD14 + CCR2+ IM or other immune-cell phenotypes in the samples from the core needle biopsy, fine-needle aspirate from primary tumor tissue, bone marrow, and peripheral blood were assessed by flow cytometry. CCL2 levels were determined using whole blood plasma by immunoassay using a luminex-based method. The ex vivo inhibition of CCL2-induced pERK by PF-04136309 was measured in whole blood using flow cytometry. Percentages of CD4+, CD8+, and CD4 + FoxP3+ T cells within CD45+ populations were evaluated by flow cytometry in paired fresh biopsy samples from three patients. Two patients provided both baseline and on-study biopsies, and one patient provided a baseline biopsy only.

## O=C(NCC(=O)N1CC[C@H](N[C@H]2CC[C@@](O)(c3ccc(-c4ncccn4)cn3)CC2)C1)c1cccc(C(F)(F)F)c1 [PF-04136309]
500 mg BID, week 6 post dosing vs baseline
  Accumulation of CCR2 + CD14+ monocytes in the bone marrow: not observed
Nearly all patients, baseline to study day 2, sustained through day 15
  Change in absolute counts of CD14 + CCR2+ IM in peripheral blood: drop
